Patent publication US10238670B2, “9-aminomethyl minocycline compounds and methods of use thereof in urinary tract infection (UTI) treatment” (Paratek Pharmaceuticals, Inc., priority 2016, dated 2019)

Tests used:
[1] = system: E. coli (ATCC 25922) biofilm; assay: MBEC assay, inhibition of biofilm formation; format: cell-based, Escherichia coli
Method: (§1) The MBEC™ assay (formerly the Calgary biofilm device; Innovotech Inc., Canada) is a well-established high throughput assay for assessment of anti-biofilm activity of test agents in a 96-well format. Within this assay, the biofilm is formed on the plastic pegs of the plate lid. After inoculated media is introduced to the wells of the 96-well plate, the plate is placed in a shaking incubator to generate the necessary shear force for biofilm growth on the pegs. Following a suitable incubation time, the individual biofilms can be treated with varying concentrations of test agents (challenge plate). After the desired treatment time, the remaining biofilm-associated bacteria are retrieved from the pegs through sonication (recovery plate). Serial dilution and/or plating of the recovered bacterial suspension allow for the quantification of test agents' efficacy against pre-formed biofilms. Additionally, readout of the challenge plate from the biofilm treatment can be used to determine MIC values of test agents. The absence of growth in the recovery plate indicates complete biofilm eradication and the lowest concentration of a test agent that achieves this is designated as the minimum biofilm eradication concentration (MBEC). The MBEC™ assay is also amenable to assess potential synergistic effects of combination treatments, as well as efficacy of test agents in inhibiting or inducing biofilm formation.
The MBEC™ plates were inoculated with either 10^5 CFU/mL (low inoculum) or 10^7 CFU/mL (high inoculum) of stationary phase E. coli (ATCC 25922) with simultaneous addition of antibiotics to evaluate the progression of biofilm formation under antibiotic challenge. After 24 hour incubation, the bacteria were recovered and enumerated (as above). FIG. 6. […] FIG. 7.

[2] = complicated skin and skin structure infection; cited from earlier work
E. coli FQR = assay: In vitro MIC, 2010 surveillance isolates; format: cell-based, Escherichia coli; conditions: N=1264
[3] = system: E. coli (ATCC 25922) biofilm; assay: MBEC assay, planktonic adhesion to 6, 12, 24 hour biofilms under sub-MIC treatment; format: cell-based, Escherichia coli
Method: as §1, with “The MBEC™ assay is also amenable to assess potential synergistic effects of combination treatments, as well as efficacy of test agents in inhibiting or inducing biofilm formation.” left out

[4] = 14C-Compound 1 excretion and kidney/blood distribution in rats; format: in vivo, rat; conditions: for dose excreted in the urine: IV 5 mg/kg
Method: In rats, based on ^14C-Compound 1 dosed intravenously, approximately 30% of the dose (5 mg/kg) was excreted in the urine, with 25% excreted in the first 24 hours. The remainder of the dose was excreted into the feces. After IV dosing, the concentration of radioactivity in the kidney (cortex: 12,700 ng/g; medulla: 11,500 ng/g; pelvis: 11,300 ng/g) exceeded the blood concentration (1,570 ng/ml) 5 minutes post dose and at 24 hrs post dose (blood: 57.6 ng/ml; kidney cortex 318 ng/g; kidney medulla: 167 ng/g; kidney pelvis: 161 ng/g).

[5] = Phase 1 studies, plasma pharmacokinetics (IV and oral)
E. coli (ATCC 25922) = conditions: Macone 2014; cited from earlier work
human plasma protein = conditions: cited from earlier work

CN(C)c1cc(CNCC(C)(C)C)c(O)c2c1C[C@H]1C[C@H]3[C@H](N(C)C)C(O)=C(C(N)=O)C(=O)[C@@]3(O)C(O)=C1C2=O [Compound 1, 9-[(2,2-dimethyl-propylamino)-methyl]-minocycline]
less bioburden of biofilm compared to control ([1]; 0.183 μg/mL (approx. 15% of MIC)): approx. 2 log units
lower total bioburden of biofilm vs controls ([1]; 0.743 μg/mL, 24 hour incubation): 3-4 log units
reduction of mean biofilm formation compared to controls ([1]; 0.74 p g/mL, high and low inoculum conditions, respectively): 3 to 4 log units
inhibition of biofilm formation ([1]; all doses above the MIC): strongly inhibits biofilm formation
induction of biofilm formation ([1]; sub-MIC doses): fail to induce biofilm formation
clinical efficacy and tolerability [2]: comparable to linezolid
Cumulative % Inhibition at MIC (E. coli FQR; MIC 1 μg/ml): 64.4%
Cumulative % Inhibition at MIC (E. coli FQR; MIC 2 μg/ml): 89.2%
Cumulative % Inhibition at MIC (E. coli FQR; MIC 4 μg/ml): 97.7%
Cumulative % Inhibition at MIC (E. coli FQR; MIC 8 μg/ml): 99.6%
Cumulative % Inhibition at MIC (E. coli FQR; MIC 16 μg/ml): 99.9%
Cumulative % Inhibition at MIC (E. coli FQR; MIC ≤0.5 μg/ml, listed as head image P00008): 29.6%
Cumulative % Inhibition at MIC (E. coli FQR; MIC ≥32 μg/ml): 100%
reduction in total biofilm-associated bacteria relative to controls ([3]; 24 hour biofilms, 4% of the MIC (0.046 μg/mL), planktonic bacteria present): reduced by about a log
adhesion of planktonic bacteria to biofilms ([3]; sub-MIC concentrations, 6, 12, 24 hour biofilms): do not promote additional adhesion of planktonic bacteria
dose excreted in the urine ([4]; first 24 hours): 25%
dose excreted in the urine ([4]; total): approximately 30%
concentration of radioactivity, blood ([4]; IV, 5 minutes post dose): 1,570 ng/ml
concentration of radioactivity, kidney cortex ([4]; IV, 5 minutes post dose): 12,700 ng/g
concentration of radioactivity, kidney medulla ([4]; IV, 5 minutes post dose): 11,500 ng/g
concentration of radioactivity, kidney cortex ([4]; IV, 24 hrs post dose): 318 ng/g
concentration of radioactivity, kidney medulla ([4]; IV, 24 hrs post dose): 167 ng/g
concentration of radioactivity, kidney pelvis ([4]; IV, 24 hrs post dose): 161 ng/g
bioequivalence of tablet and IV dose ([5]; 300 mg dose of tablet): bioequivalent to a 100 mg IV dose
half-life ([5]; human, in vivo): ~18 h
Cmax ([5]; human, in vivo, iv, 100 mg): ~1800 ng/mL
exposure based on plasma concentrations, higher at steady-state than after a single dose ([5]; steady state vs single dose): approximately 50%
steady state AUC (IV and oral) and Cmax (oral) relative to single IV or oral dose ([5]; steady state vs single dose): approximately 1.5 ×
reported MIC against E. coli (E. coli (ATCC 25922)): 0.5 to 2 µg/mL

CN(C)c1cc(NC(=O)CNC(C)(C)C)c(O)c2c1C[C@H]1C[C@H]3[C@H](N(C)C)C(O)=C(C(N)=O)C(=O)[C@@]3(O)C(O)=C1C2=O [Tigecycline]
type of plasma protein binding (human plasma protein; binding increases with increasing drug concentrations): atypical, non-linear protein binding
human plasma protein binding, Mean (human plasma protein; literature): 71-87%
